{
  "source": "patent EP1039902B1",
  "about": "“INHIBITORS OF GAP JUNCTION COMMUNICATION” (THE SCRIPPS RESEARCH INSTITUTE, priority 1997, dated 1999)",
  "key": {"[1]": {"system": "rat glial cell gap junction", "experiment": "Gap junction dye coupling assay (Lucifer yellow dye transfer; microinjection or scrape loading)", "assay_type": "cell-based", "settings": "for inhibition of gap junction-mediated dye transfer: result in words, concentration not stated at the place", "procedure": "(§1) Rat glial cells (Suter et al., 1987) obtained from Dr. Trosko's laboratory were cultured in standard plastic tissue cultureware in Richter's Improved Minimal Essential Medium (Irvine Scientific, Santa Ana, CA), supplemented with 10% fetal calf serum and 50 µg/ml gentamicin sulfate, and incubated in a humidified atmosphere of 95% air/5% CO2 at 37°C. The cells were passaged by trypsinization and used at passages 4-8. BHK (baby hamster kidney) cells that were stably transfected with a β1 connexin cDNA (Kumar et al., 1995) were cultured in DMEM medium supplemented with 5% fetal calf serum and 50 µg/ml gentamicin sulfate, and incubated in a humidified atmosphere of 95% air/5% CO2 at 37° C. In order to induce β1 connexin expression in the BHK cells, 100 µM zinc acetate was added to culture medium for 8-18 hours when the cell culture was about 90% confluent.\n(§2) Gap junctional communication in glial cell and BHK/β1 cell cultures was assayed by microinjection of 5% Lucifer yellow CH dye in 0.1 M LiCl solution, and quantitated by determining the number of directly adjacent, neighboring cells that received dye (dye-coupling). Micropipettes were loaded with the dye solution by backfilling. Cells were visualized using a Nikon Diaphot inverted phase contrast/ epifluorescent microscope, and impaled with dye-filled micropipettes using an Eppendorf microinjector (model 5246). Five minutes after dye-injection, the transfer of dye to directly adjacent cells was determined using epifluorescent illumination. For each treatment condition, ten cells were microinjected in each of three dishes, the total number of dye-coupled neighboring cells was calculated and compared to determine the % dye-coupling. For scrape loading measurements, Lucifer yellow CH (0.05% dye in PBS) was loaded intracellularly by cutting or scraping cells in the monolayer with a sharp knife. The dye solution was left in the dish for 90 seconds, then the solution was discarded, and the dish subsequently washed with PBS. The cells were examined for dye transfer with an inverted epifluorescence microscope, and the degree of communication was assessed by determining the extent of Lucifer yellow transfer into contiguous cells."}, "[2]": {"system": "Chinese hamster V79 cells", "settings": "cited from earlier work"}, "BHK/β1 cells": {"system": "BHK/β1 cells", "experiment": "Gap junction dye transfer between β1 connexin-transfected BHK cells", "assay_type": "cell-based, baby hamster", "procedure": "as §1, §2"}, "rat glial cells [3]": {"system": "rat glial cells", "experiment": "Gap junction electrical coupling assay (double whole cell patch recording)", "assay_type": "cell-based", "settings": "50 µM", "procedure": "Junctional conductance was measured using double whole cell patch recording performed on pairs of rat glial cells as described (Miller et al., (1992) J Mem. Biol. 128, 91-102) with a pipette solution of (in […]): Kaspartate 160, EGTA 10, CaCl2 2, HEPES 10 (pH 7.2), ATP 4. The external solution contained (in mM): NaCl 160, KCl 4.5, CaCl2 2, MgCl2 1, HEPES 10, pH 7.4. Both cells were held at -40 mV and pulses to -20 mV were alternately applied to each cell. Holding currents were subtracted in the records shown. Cells that were examined were generally in contact with other cells. The electrical conductance was calculated as the junctional current divided by 20 mV. All dye-coupling and conductance studies were performed at room temperature."}, "rat glial cells [4]": {"system": "rat glial cells", "experiment": "Calcium wave propagation (Fluo-3, mechanical stimulation)", "assay_type": "cell-based", "procedure": "Rat glial cells were loaded with 5 µM Fluo-3/AM (Calbiochem) in Hank's balanced salt solution containing 25 mM HEPES buffer (HBSS/HEPES) for 1 hour, at which point the loading buffer was exchanged for new HBSS/HEPES buffer. The cell cultures were then left at room temperature for at least 30 minutes. Mechanical stimulation of a single cell was performed as follows: a glass micropipette (tip diameter of approximately 0.5 µm) was micro-manipulated downward on to a single cell causing a transient deformation of the cell membrane. The calcium image was then examined with an inverted fluorescence microscope, and photographed with a digital fluorescence microscope (excitation = 506 nm, emmision = 526 nm). The degree of calcium wave propagation was quantitated by counting at different time points the number of transmitting cells in one linear direction away from the stimulated cell. Junctional dye transfer rates were simultaneously examined by microinjection of Lucifer yellow CH in the same dishes; the methods for dye transfer assay was described in assay procedures, gap junction dye coupling assays. For calcium wave and dye transfer studies, the drug was preincubated with the glial cells for 10 minutes, and the drug was left in the experimental solution throughout the examination. All measurements were performed at room temperature."}, "α1 connexin": {"system": "α1 connexin", "experiment": "Immunoblotting of α1 connexin phosphorylation isoforms", "assay_type": "cell-based, rat", "procedure": "Plasma membrane fractions containing gap junctions were obtained after hypotonic alkali extraction of the glial cells. The extracted protein was dissolved in 2% SDS and the total protein was determined using the Bio-Rad DC Protein Assay kit (Bio-Rad Corp.). 10 µg of protein was electrophoresed by 10% SDS-PAGE, and subsequently blotted electrophoretically on to Immobilon-P membranes (Millipore Corp.). Gap junction protein was detected using anti-α1 connexin polyclonal rabbit antibodies, and the HRP/Chemiluminescence detection kit (Amersham Corp.) following the manufacturer's instructions."}, "[5]": {"system": "mammalian myocardial cells", "experiment": "Gap junctional communication between myocardial cells (preliminary analysis)", "assay_type": "cell-based", "settings": "unpublished observations"}, "[6]": {"settings": "animals, ip or iv injection; cited from earlier work"}},
  "note": "Entries after “also recorded” stand apart in the source; their conditions may differ.",
  "data": [
    {"smiles": "CCCCCCCC/C=C\\CCCCCCCC(=O)OCC(CO)OC(C)=O", "note": "(racemic) [1-oleoyl-2-acetylglycerol, reference compound]", "values": [
      {"measurement": "inhibition of gap junction-mediated dye transfer", "setting": "[1]", "result": "not inhibitors"},
      {"measurement": "gap junction inhibition", "setting": "[2]", "result": "gap junction inhibition"}
    ]},
    {"smiles": "CCCCCCCC/C=C\\CCCCCCCC(N)=O", "note": "[oleamide, cis-9-octadecenamide]", "values": [
      {"measurement": "inhibition of glial cell dye transfer", "setting": "[1]; 20 µM, preincubation 4 h", "result": "significantly inhibited"},
      {"measurement": "block of intercellular dye transfer, microinjected Lucifer yellow", "setting": "[1]; 50 µM for 10 min", "result": "completely blocked intercellular dye transfer"},
      {"measurement": "inhibition of dye transfer", "setting": "[1]; 50 µM, 4 h prior to injection of Lucifer yellow (dose-response)", "result": "complete inhibition"},
      {"measurement": "recovery of dye transfer after removal of oleamide", "setting": "[1]; 50 µM, then fresh media without oleamide", "result": "Complete recovery of dye transfer to control levels was observed within one hour"},
      {"measurement": "inhibition at 20 µM", "setting": "[1]; Rattus norvegicus, Glial cell, read-out: inhibition of dye transfer", "result": "~50", "unit": "%"},
      {"measurement": "restoration of dye-coupling under continual exposure", "setting": "[1]; continually exposed for up to 24 h", "result": "no restoration of dye-coupling"},
      {"measurement": "time for junctional communication to recover to control levels after removal of oleamide", "setting": "[1]; culture media changed", "result": "≤ 1", "unit": "h"},
      {"measurement": "inhibition of gap junction-mediated dye transfer", "setting": "[1]", "result": "most potent inhibitor"},
      {"measurement": "dye transfer after scrape loading with Lucifer yellow", "setting": "[1]; scrape loaded cells, pretreatment with oleamide", "result": "fully abrogated; also recorded: no dye spread to adjacent cells"},
      {"measurement": "effect on dye transfer", "setting": "BHK/β1 cells; 50 µM for 10 min", "result": "no dye transfer"},
      {"measurement": "effect on dye transfer", "setting": "BHK/β1 cells; 50 µM for 10 min, listed as Oleamide", "result": "rapidly and completely block dye transfer"},
      {"measurement": "effect on dye transfer", "setting": "BHK/β1 cells; 50 µM, 4 hours of treatment", "result": "completely blocked dye transfer"},
      {"measurement": "dye transfer", "setting": "BHK/β1 cells; 50 µM, 4 hours of treatment, zinc induced sample", "result": "0.31 ± 0.24", "unit": "%"},
      {"measurement": "junctional electrical coupling", "setting": "rat glial cells [3]", "result": "completely blocked; also recorded: completely uncoupled"},
      {"measurement": "residual junctional conductance (upper limit)", "setting": "rat glial cells [3]", "result": "less than 50 pS"},
      {"measurement": "mean junctional conductance", "setting": "rat glial cells [3]; n=5", "result": "0.5 ± 0.7", "unit": "nS"},
      {"measurement": "mechanically-stimulated or glutamate-induced calcium wave propagation", "setting": "rat glial cells [4]", "result": "no inhibitory effect"},
      {"measurement": "mechanically-induced calcium wave propagation", "setting": "rat glial cells [4]; 50 µM, preincubation from 10 minutes to 4 hours", "result": "no impact; also recorded: indistinguishable manner from control cell populations"},
      {"measurement": "α1 connexin phosphorylation profile (P2 isoform)", "setting": "α1 connexin; 50 µM, 4 hours", "result": "dramatic loss of the P2 isoform"},
      {"measurement": "reversibility of the effect on the α1 phosphorylation profile", "setting": "α1 connexin; removal of oleamide, normal culture media for 4 hours", "result": "proved reversible"},
      {"measurement": "sensitivity of gap junctional communication to the inhibitory action", "setting": "[5]", "result": "not as sensitive"},
      {"measurement": "induction of physiological sleep", "setting": "[6]", "result": "induce physiological sleep"}
    ]}
  ]
}
